US20250129062A1, “AMORPHOUS SUBSTANCES, CRYSTALS, PHARMACEUTICAL COMPOSITIONS, PREPARATION METHODS AND USES OF THIOHYDANTOIN COMPOUND OR PHARMACEUTICALLY ACCEPTABLE SALT THEREOF” (SUZHOU KINTOR PHARMACEUTICALS, INC., priority 2021, published 2025)

Assays:
[1] = Accelerated stability experiment of amorphous substance; format: physicochemical; settings: Acceleration
Protocol: (§1) Referring to ICH Q1A stability testing of new drug substances and products, the amorphous substance of the compound of formula I prepared in example 1 was subjected to a long-term stability experiment (experimental condition: 25±2° C., RH 60%=5%) and an accelerated stability experiment (experimental condition: 40±2° C., RH 75%=5%). The purity of the sample at different times was detected by HPLC under condition 2 to evaluate the physicochemical stability of the amorphous substance of the compound of formula I. The results were as shown in Table 18.
(§2) Condition 2: • Instruments: Agilent 1260; • Chromatographic column: C18 (150 mm×4.6 mm×3.5 μm); • column temperature: 45° C.; • Mobile phase: binary mobile phase system, mobile phase A was a 10 mM aqueous ammonium acetate solution (preparation method: ammonium acetate was added into purified water, and mixed evenly, and pH value was adjusted to 4.50±0.05 with acetic acid), mobile phase B was acetonitrile; • Elution mode: gradient elution, with specific procedures as shown in Table 17; • flow rate: 1.0 mL/min; • Injection volume: 5 μL; • Detection wavelength: 270 nm; • Data acquisition: OpenLab CDS2 software.

[2] = Long-term stability experiment of amorphous substance; format: physicochemical; settings: for purity (HPLC): Long term
Protocol: as §1, §2

Cc1ncsc1-c1ccc(CNC(=O)[C@@H]2C[C@@H](O)CN2C(=O)[C@@H](NC(=O)COCCCCOc2ccc(-c3ccc(N4C(=S)N(c5ccc(C#N)c(C(F)(F)F)c5F)C(=O)C4(C)C)cn3)cc2)C(C)(C)C)cc1
purity (HPLC) ([1]; 1 months): 99.41% | purity (HPLC) ([1]; 3 months): 99.35% | purity (HPLC) ([1]; 6 months): 99.36% | purity (HPLC) ([1]; 40±2° C., RH 75%=5%, 0 month): 99.25% | purity (HPLC) ([2]; 3 months): 99.36% | purity (HPLC) ([2]; 6 months): 99.37% | purity (HPLC) ([2]; 9 months): 99.29% | purity (HPLC) ([2]; 25±2° C., RH 60%=5%, 0 month): 99.25% | stability ([2]; long-term, accelerated and high-temperature stability experiments): excellent stability
